Measured values reported in patent publication US9969973B2, “Methods and compositions for cell attachment and cultivation on planar substrates” (Janssen Biotech, Inc., priority 2008, dated 2018).

Columns and labels:
[1] = system: human embryonic stem cell line H1; test: Attachment of human embryonic stem cell line H1 to planar substrates of Table 1, with or without H-1152; assay type: cell-based
Description: Prior to testing, cells of the human embryonic stem cell line H1 cells were expanded on tissue culture plates coated with a 1:30 dilution of growth factor-reduced MATRIGEL®. Cells were seeded onto 100 mm culture dishes in 10 ml MEF conditioned media supplemented with 20 ng/ml bFGF (MEF-CM/bFGF). The cells were cultured at 37° C. in a humidified with a 5% CO2 atmosphere. The media was changed everyday with fresh MEF-CM/bFGF. Once the cells reached approximately 80% confluence, the cells were passaged by treatment with 1 mg/ml LIBERASE for 5 minutes at 37° C. The digestion was stopped by removing enzyme from the dish and rinsing the cells with MEF-CM/bFGF. The cells were collected by manual scraping in 10 ml MEF-CM/bFGF and transferred to a 50-ml conical tube. The cells were centrifuged at 200×g (1000 rpm) on a tabletop centrifuge to form a pellet. […]
Cells of the human embryonic stem cell line H1 were seeded onto the various planar substrates set forth in Table 1, at a density of 100,000 cells/cm^2. […] The effect of the Rho kinase inhibitor H-1152 on the attachment of the cells to the planar substrates was determined 3 μM H-1152 was added to the medium used to seed the cells. […] The cells were then stained with 1% hematoxylin, and the number of cells was determined via light microscopy. […]

[2] = system: human embryonic stem cell line H1; test: Attachment of H1 cells to polycarbonate Membrane No. 7 with H-1152 concentration series; assay type: cell-based; conditions: 24 hours
Description: In a separate experiment, the effect of the Rho kinase inhibitor H-1152 on the attachment of cells of the human embryonic stem cell line H1 to Membrane No. 7 was determined. The cells were seeded on a planar substrate comprising polycarbonate membranes (membrane No. 7) at a density of 150,000 cells/cm^2 in MEF-CM containing 20 ng/ml bFGF. The Rho Kinase inhibitor H-1152 was added to the culture medium at concentration of 0, 0.03, 0.1, 0.3, 1, and 3 μM. After 24 hours, the cells on the membrane were fixed with 4% paraformaldehyde, rinsed with PBS, air dried, stained with crystal violet dye. The number of cells was determined via light microscopy. Wells containing vehicle were included as a control.

[3] = system: human embryonic stem cell line H1; test: Detachment of H1 cells from polycarbonate Membrane No. 9 after removal of H-1152; assay type: cell-based; conditions: 3 μM for 24 hr, then 24 hours without
Description: Cells of the human embryonic stem cell line H1 were seeded on to a planar substrate comprising polycarbonate (Membrane No. 9) at a density of 100,000 cells/cm^2, in MEF conditioned medium containing 20 ng/ml bFGF and 3 μM of the Rho kinase inhibitor H-1152. The cells were cultured for 24 hr. After this time, the culture medium was replaced with MEF conditioned medium containing 20 ng/ml bFGF, lacking H-1152. After 24 hours, the cells on the membrane were fixed with 4% paraformaldehyde, rinsed with PBS, air dried, stained with crystal violet dye. The number of cells was determined via light microscopy. Wells containing H-1152 were included as a control.

[4] = system: human embryonic stem cell line H1; test: Effect of porosity and Rho kinase inhibition on attachment of H1 cells (Membranes No. 10 and 11); assay type: cell-based
Description: Cells of the human embryonic stem cell line H1 at passage 42 were seeded onto the following planar substrates: Membrane No. 10 (pore size 0.4 μm); and Membrane No. 11 (pore size 3 μm). Cells were seeded at a density of 100,000 cells/cm^2, in MEF conditioned medium containing 20 ng/ml bFGF. The effect of Rho kinase inhibition on the attachment of the cells to the planar substrates was also examined. The cell culture medium was supplemented with 0.3 μM H-1152. After 24 hours, the culture medium was replaced with MEF conditioned medium containing 20 ng/ml bFGF, lacking H-1152. After another 24 hours culture, the cells on the membrane were fixed with 4% paraformaldehyde, rinsed with PBS, air dried, stained with crystal violet dye. Wells containing 1 μM H-1152 were included as a control. The number of cells was determined via light microscopy. Wells containing vehicle were included as a control.

[5] = system: human embryonic stem cell line H9; test: Attachment of H9 cells to mixed cellulose ester membrane No. 1 with Y26732; assay type: cell-based; conditions: for Effect of Y26732 on attachment of H9 cells: 24 hours
Description: Cells of the human embryonic stem cell line H9 were cultured on MATRIGEL® coated dishes prior to experimental manipulation. Cells were seeded a mixed cellulose ester membrane (membrane No. 1) at a density of 150,000 cells/cm^2 in MEF conditioned medium. The planar substrate lacked an adlayer and a fibroblast feeder cell layer. The effect of the Rho Kinase inhibitor treatment on the attachment to the planar substrate was examined Cells were treated with 0, 10, or 20 μM Y26732. After 24 hours, the cells were fixed with 4% paraformaldehyde, rinsed with PBS, air dried, stained with crystal violet dye. The number of cells was determined via light microscopy. Wells containing vehicle were included as a control.

[6] = system: human embryonic stem cell line H9; test: Attachment of H9 cells to polycarbonate Membrane No. 7 with Y26732; assay type: cell-based; conditions: 24 hours
Description: Cells of the human embryonic stem cell line H9 were seeded onto a planar substrate comprising polycarbonate (Membrane No. 7) at a density of 150,000 cells/cm^2 in MEF conditioned medium. The effect of Rho kinase inhibitor treatment on attachment was examined: The Rho Kinase inhibitor Y26732 was added to the culture medium at concentration of 0, 10, or 20 μM. After 24 hours, the cells on the membrane were fixed with 4% paraformaldehyde at room temperature, rinsed with PBS, air dried, stained with crystal violet dye. The number of cells was determined via light microscopy. Wells containing vehicle were included as a control.

[7] = system: dissociated human embryonic stem cells; conditions: serum-free suspension culture; cited from earlier work
[8] = system: human embryonic stem cells; conditions: cited from earlier work

Row | Structure (SMILES) | Effect of H-1152 on attachment of H1 cells ([1]; 3 μM H-1152, membranes No. 2, 4 and 5) | Effect of removal of H-1152 from the culture medium on attached H1 cells ([1]; membranes No. 7 and No. 12) | Attachment of H1 cells with H-1152 ([2]; 0.03 μM) | Attachment of H1 cells with H-1152 ([2]; 0.1 μM) | Attachment of H1 cells with H-1152 ([2]; 0.3 μM) | Attachment of H1 cells with H-1152 ([2]; 1 μM) | Attachment of H1 cells with H-1152 ([2]; 3 μM) | Effect of removal of H-1152 from the culture medium [3] | Need for H-1152 to maintain attachment of H1 cells ([4]; 1 μM, Membranes No. 10 and 11) | Effect of removal of H-1152 from the culture medium ([4]; Membrane No. 10 and Membrane No. 11) | Effect of Y26732 on attachment of H9 cells ([5]; 10 μM) | Effect of Y26732 on attachment of H9 cells ([5]; 20 μM) | Effect of removal of Y26732 from the culture medium ([5]; removal for 24 hr) | Effect of Y26732 on attachment of H9 cells ([6]; 10 μM) | Effect of Y26732 on attachment of H9 cells ([6]; 20 μM) | apoptosis of dissociated human ES cells [7] | attachment of human embryonic stem cells on surface modified plates [8]
1 | Cc1cncc2cccc(S(=O)(=O)N3CCCNC[C@@H]3C)c12 [Membrane H-1152] | enhanced | led to detachment of H1 cells | do not attach | do not attach | attachment was observed | attachment was observed | attachment was observed | resulted in the detachment of cells | required to maintain the attachment | resulted in detachment of cells |  |  |  |  |  |  | 
2 | C[C@@H](N)[C@H]1CC[C@H](C(=O)Nc2ccncc2)CC1 [Membrane Y26732] |  |  |  |  |  |  |  |  |  |  | increased the attachment | increased the attachment | did not result in the detachment | resulted in the attachment | resulted in the attachment | protected from apoptosis | enhance the attachment
